Tests used:
[1] = test system: Reconstructed Human Epidermis (RHE); test: Reconstructed Human Epidermis (RHE) treated topically with ceramide in base emulsion, LC-MS/MS proteomics; assay type: cell-based; conditions: application on keratinocytes
Experimental: Material and methods: Reconstructed Human Epidermis (RHE) cell culture is used, as this system mimics the in vivo 3D structure of epidermal tissue as well as the conditions and processes that occur in normal epidermis. RHE are cultured using the medium provided by the manufacturer until analysis. RHE are maintained in survival for 24 hours, before RHE are topically treated with the respective ceramide in a base emulsion for 24 h. 3 RHE are treated with base emulsion alone and 3 more remained untreated as a control batch (Ctrl). RHE are incubated under classical cell culture conditions (37° C., 5% CO2).
Sample preparation and LC-MS/MS analysis: Protein is extracted using the Pierce Total Protein Extraction Kit (Thermo Fisher) according to manufacturer's recommendations. The protein is mixed with Laemmli buffer and heated to 37° C. for 30 min. Protein concentration is determined by the BCA method and standardized for all samples. The samples are separated by SDS-PAGE and digested with trypsin overnight. The peptides generated are acidified and separated. The mass spectra are queried using Proteome Discoverer (version 2.5). The resulting MS/MS data are queried against the Homo sapiens proteome UP000005640 (20371 reviewed entries). Results are filtered based on unique peptides >2, and global peptide scores. Analyses are performed using Proteome Discoverer 2.5 to check for overall sample quality.
Bioinformatics and statistical analysis: Proteomic analysis returned a mean total of 34961 high-quality peptides corresponding to a mean 2422 identifiable and quantifiable RHE proteins among conditions. A summary of proteins differentially expressed within conditions is provided in Annex 3. Proteins with a p-value 0.05 in at least one of the concentrations tested for a lipid are considered significant and used for pairwise comparisons. Relevant proteins are classified by their biological processes and associated pathways using the publicly available gene ontology (GO) database provided by the Gene Ontology Consortium and Reactome. Interactome analysis was performed using Cytoscape combined with STRING.

Laminin 5 = test: Laminin-5 immunostaining along the dermal-epidermal junction of living human skin explants; assay type: cell-based; conditions: 0.1% CNS18 in basic emulsion, topical, 4 days of treatment
Experimental: (§1) Human skin explants of an average diameter of 12 mm (±1 mm) were prepared on an abdoplasty coming from a person with a phototype II according to Fitzpatrick skin colour classification. The explants were kept in survival in BEM culture medium (BIO-EC's Explants Medium) at 37° C. in a humid, 5%—CO2 atmosphere.
(§2) The tested products E and P were applied topically at a rate of […] per 1 cm^2 explant (≈2 mg/cm^2), and spread using a small spatula on day 0 (D0), D2, D4 and D6. […] The culture medium was half renewed (l ml per well) on D2, D4 and D6.
(§3) On D0, the 3 explants from the batch TO were collected and cut into two parts. Half was fixed in buffered formalin solution, […] was frozen at −80° C. On D4 and D8, 3 explants from the concerned batches were collected and treated in the same way as in D0.
After fixation for 24 hours in buffered formalin, the samples were dehydrated and impregnated in paraffin using a Leica PEARL dehydration automat. The samples were embedded using a Leica EG 1160 embedding station. 5-μm-thick sections were made using a Leica RM 2125 Minot-type microtome, and the sections were mounted on Superfrost® histological glass slides. The frozen samples were cut into 7-μm-thick sections using a Leica CM 3050 cryostat. Sections were then mounted on Superfrost® plus silanized glass slides. […]
The immunostaining was assessed by microscopical observation.

Collagen IV = Collagen IV immunostaining along the dermal-epidermal junction of living human skin explants; assay type: cell-based; conditions: 0.1% CNS18 in basic emulsion, topical, 8 days of treatment
Experimental: as §1, §2, §3
After fixation for 24 hours in buffered formalin, the samples were dehydrated and impregnated in paraffin using a Leica PEARL dehydration automat. The samples were embedded using a Leica EG 1160 embedding station. […]
Collagen IV immunostaining was performed on frozen skin sections with a monoclonal anti-collagen IV antibody (Dako, ref M0785, clone CIV 22) diluted at 1:25 in PBS-BSA 0.3%-Tween 20 at 0.05% and incubated for 1 h at room temperature. […] The immunostaining was assessed by microscopical observation.

IL-1α = IL-1α ELISA quantification in BEM culture medium of skin explants; assay type: cell-based, human; conditions: 0.05% GlcCNS18 in basic emulsion, topical
Experimental: Human skin explants of an average diameter of 11 mm (+1 mm) were prepared on an abdoplasty coming from a person with a II phototype according to Fitzpatrick skin colour classification. The explants were kept in survival in BEM culture medium (BIO-EC's Explants Medium) at 37° C. in a humid, 5%—CO2 atmosphere.
The tested products E and P were applied topically at a rate of 2 μL per 1 cm^2 explant (2 mg/cm^2), and spread using a small spatula on day 0 (D0), D1, D2 and D5. […] The culture medium was half renewed (1 ml per well) on D1, D2 and completely renewed (2 mL per well) on D5.
On D0, the 3 explants from the batch TO were collected and cut into two parts. One part was fixed in buffered formalin solution, and the other part was frozen at −80° C. for histological analysis. On D6, 4 explants from the concerned batches were collected and treated in the same way than in D0. The culture medium BEM of all batches was collected on D6 (2 mL per explant) and stored at −20° C. for dosages.
IL-1α dosage was performed with human IL-1α ELISA kit (Cayman, ref 583301). According to provider's guidelines, the culture medium and the IL-1α standard were incubated with acetylcholinesterase (AChE) Fab′ conjugate binding IL-1α in wells which contain coated IL-1α antibody, overnight at 4° C. […] Absorbance at 412 nm was measured using the M200Pro Tecan microplate reader and Magellan7 software. […]

[2] = 0.01%, 0.03%, 0.15% ceramide in vehicle vs vehicle, 24 h

SMILES	regulation of ATP synthase subunit delta (mitochondrial) [1]	regulation of ATP synthase subunit g (mitochondrial) [1]	regulation of NAD-dependent protein deacetylase sirtuin-2 (sirtuin-2) [1]	regulation of cytochrome c oxidase subunit 6C [1]	regulation of phosphomevalonate kinase [1]	regulation of ECM1 (Extracellular Matrix Protein 1) [1, 2]	regulation of Syndecan-1 [1, 2]	regulation of LC3A (microtubule-associated proteins 1A/1B light chain 3A) [1]	regulation of protein S100-A2 [1]	regulation of protein S100-A9 [1]	regulation of ATP-dependent zinc metalloprotease YME1L1 [1]	regulation of NAD-dependent malic enzyme (mitochondrial) [1]	also measured
CCCCCCCCCCCCCCCCCC(=O)NC(CO)C(O)CCCCCCCCCCCCCCC (centres unmarked) [Cer NG]	upregulation	upregulation	up-regulation	upregulation	upregulation	up-regulation	–	–	–	–	–	–	regulation of small proline-rich protein 2D [1]: up-regulation; regulation of Integrin alpha-3 [1, 2]: up-regulation
CCCCCCCCCCCCCCCCCC(=O)NC(CO)C(O)C(O)CCCCCCCCCCCCCC (centres unmarked) [Cer NP]	–	–	–	–	–	up-regulation	up-regulation	–	–	–	–	–	regulation of Keratin-17 [1]: up-regulation
CCCCCCCCCCCCCC=CC(O)C(CO)NC(=O)CCCCCCCCCCCCCCCCC (centres unmarked) [Cer NS]	–	–	up-regulation	–	–	up-regulation	up-regulation	up-regulation	down-regulation	down-regulation	–	–	regulation of Kallikrein-5 [1]: up-regulation; regulation of cornifin-B [1]: up-regulation; regulation of Laminin-5 [1, 2]: up-regulation; regulation of Plakophilin-2 [1, 2]: up-regulation; increase in expression of laminin-5 (Laminin 5): 26%; increase in expression of collagen IV (Collagen IV): 41%
CCCCCCCCCCCCCC=CC(O)C(COC1OC(CO)C(O)C(O)C1O)NC(=O)CCCCCCCCCCCCCCCCC (centres unmarked) [GlcCer]	up-regulation	up-regulation	–	up-regulation	up-regulation	–	–	up-regulation	down-regulation	down-regulation	up-regulation	up-regulation	regulation of NADH dehydrogenase [ubiquinone]1 alpha subcomplex subunit 8 [1]: up-regulation; regulation of NADH dehydrogenase [ubiquinone] iron-sulfur protein 2 (mitochondrial) [1]: up-regulation; regulation of interleukin-1-alpha (IL-1α) [1]: down-regulation; regulation of nuclear factor NF-kappa-B p105 subunit [1]: down-regulation; IL-1α release (IL-1α; day 6): increased; IL-1α release (IL-1α; day 6, listed as GlcCNS): significant increase
CCCCCCCCCCCCCC=CC(O)C(COC1OC(CO)C(OC2OC(CO)C(O)C(O)C2O)C(O)C1O)NC(=O)CCCCCCCCCCCCCCCCC (centres unmarked) [LacCer]	upregulation	upregulation	up-regulation	upregulation	upregulation	up-regulation	up-regulation	–	–	–	upregulation	upregulation	regulation of Glutathione S-transferase Mu 2 [1]: up-regulation; regulation of LC3B (microtubule-associated proteins 1A/1B light chain 3B) [1]: up-regulation; regulation of cystathione-gamma-lyase [1]: up-regulation; regulation of cytochrome b-cl complex subunit 9 [1]: upregulation; regulation of cytochrome c oxidase subunit 2 [1]: upregulation; regulation of cytochrome c oxidase subunit NDUFA4 [1]: upregulation

— US20260041622A1, “Reduction of Signs of Skin Aging” (CarboCode S.A., priority 2022, published 2026)
